Data as given in PMC10534827 (Pharmaceuticals, 2023).

Tests used:
SH-SY5Y cells = assay: MTT cytotoxicity, SH-SY5Y; assay type: cell-based, human; settings: Homo sapiens, SH-SY5Y; MTT, 72 h exposure; read-out: SH-SY5Y IC50
Neuro-2a cells = assay: MTT cytotoxicity, Neuro-2a; assay type: cell-based, murine; settings: Mus musculus, N2a; MTT, 72 h exposure; read-out: Neuro-2a IC50
[1] = molecular target: T1, Acetylcholinesterase from Electrophorus electricus (Electrophorus electricus, UniProt O42275); assay: biochemical; assay type: biochemical; settings: for inhibition at 1000 µM: 1 mM solution of the tested compound, read-out: Activity [%] (inhibition percentage of AChE); for IC50: mean ± SD of three experiments, read-out: AChE IC50
T1 construct: purchased Sigma-Aldrich, Hamburg, Germany
T1 sequence (O42275 24-633): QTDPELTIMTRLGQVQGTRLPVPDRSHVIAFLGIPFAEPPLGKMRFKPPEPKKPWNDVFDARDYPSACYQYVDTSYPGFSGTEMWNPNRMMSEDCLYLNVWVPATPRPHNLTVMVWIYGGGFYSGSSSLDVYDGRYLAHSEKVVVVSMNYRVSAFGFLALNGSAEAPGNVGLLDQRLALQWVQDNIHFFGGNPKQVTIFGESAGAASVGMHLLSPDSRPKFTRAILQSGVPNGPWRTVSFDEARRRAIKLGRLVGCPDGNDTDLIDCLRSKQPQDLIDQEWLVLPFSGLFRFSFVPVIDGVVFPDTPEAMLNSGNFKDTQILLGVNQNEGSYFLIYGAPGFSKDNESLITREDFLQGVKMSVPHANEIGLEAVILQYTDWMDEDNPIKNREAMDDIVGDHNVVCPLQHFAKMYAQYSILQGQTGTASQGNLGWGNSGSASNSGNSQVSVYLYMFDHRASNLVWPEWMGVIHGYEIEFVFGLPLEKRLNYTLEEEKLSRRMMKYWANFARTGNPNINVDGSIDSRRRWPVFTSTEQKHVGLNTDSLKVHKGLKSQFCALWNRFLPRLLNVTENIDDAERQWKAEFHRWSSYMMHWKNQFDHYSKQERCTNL
Method: (§1) AChE and BChE inhibitory activity was measured using the microplate assay described by Ellman et al. [68] with the modifications added by López et al. [36]. The compounds were tested at concentrations between 10^−3 and 10^−8 M. First, all compounds were dissolved in 1% DMSO in a concentration of 1 mg/mL.
(§2) Incubation of the plates was performed at room temperature for 30 min. Then, 100 μL of substrate solution were added to start the enzymatic reaction. […] Enzyme activity was calculated as an inhibition percentage compared to an assay including buffer instead of an inhibitor. […] All data were analyzed with the software package Prism 3 (Graph Pad Inc., San Diego, CA, USA).

PAMPA-BBB permeability = assay type: in vitro ADME; settings: experimentally measured BBB permeability
Text: At the same time, they needed to fulfill the requirement for good BBB permeation in order to achieve sufficient brain exposure. Although transport across the BBB is quite a complex phenomenon, passive diffusion is still the primary route for exogenous substances to access that target. So, the selected compounds were subjected to an in vitro PAMPA-BBB assay, relying on the capacity of the method in distinguishing the candidates with good BBB passive permeabilities. […].
The blood–brain barrier permeabilities were measured by PAMPA Permeability Analyzer (pIONInc, Billerica, MA, USA). The tested compounds and reference standards were prepared as 10 mM stock solutions in DMSO and further diluted in Prisma HT buffer pH 7.4. The experiment followed the BBB Protocol: 200 μL sample’s aliquots in the donor compartment, Brain Sink Buffer aliquots (200 μL) in the acceptor wells, BBB-1 lipid for coating the permeation membranes, “sandwich” assembly with the acceptor plate on top of the donor one, and incubation at temperature 25 °C for 4 h under humidity control without stirring. For permeability assessment, UV spectra of the blank, reference, donor, and acceptor plates were collected at wavelength 250–500 nm. […]. Samples were analyzed in triplicate and average values were reported. […]. Theophylline, corticosterone, and propranolol HCl were used as reference standards to control the quality and consistency of the BBB permeability experiment.

[2] = Lipid peroxidation in linoleic acid system, FTC method; settings: 10 mM compound, 500 nm
Method: The antioxidant activity of studied compounds against lipid peroxidation was measured through ammonium thiocyanate assay as described by Takao et al. [66] with some modifications. […] A 10 μL aliquot of the reaction solution was then added to 200 μL of 70% (v/v) ethanol and 10 μL of 30% (w/v) ammonium thiocyanate. […] Aliquots were assayed every 24 h until the day after the absorbance of the control solution (without compound) reached maximum value. BHT (10 mM) was used as positive control.

CCL-1 cells = assay: MTT cytotoxicity, CCL-1 normal fibroblasts; assay type: cell-based, murine; settings: Mus musculus, Fibroblast; MTT, 72 h exposure; read-out: CCL-1 IC50
[3] = DPPH radical scavenging activity; settings: 300 μL of 5 mM compound in MeOH, 30 min, 517 nm
Method: The DPPH (2,2-diphenyl-1-picryl-hydrazyl-hydrate) free radical scavenging activity method is based on the neutralization of the DPPH radical by an antioxidant.
Free radical scavenging activity was measured using DPPH method [69, 70] with slight modification. Here, 300 μL of 5 mM solutions of tested compounds in MeOH were added to 2 mL methanolic solution of DPPH (2 mg/mL). […] Results were evaluated as percentage scavenging of radical:DPPH radical scavenging activity (%) = ((Abscontr. − Abssample)/Abscontr.) ×100, where Abscontr. is the absorbance of DPPH radical with 300 μL MeOH, Abssample is the absorbance of DPPH radical solution mixed with sample. BHT was used as positive control.

[4] = molecular target: T2, butyrylcholinesterase from equine serum (Equus caballus, UniProt P81908); assay: biochemical; settings: for inhibition at 1000 µM: 1 mM solution of the tested compound, read-out: Activity [%] (inhibition percentage of BChE); for SI BChE: IC50(AChE)/IC50(BChE); for IC50: mean ± SD of three experiments, read-out: BChE IC50
T2 construct: butyrylcholinesterase from equine serum; purchased Sigma-Aldrich, Hamburg, Germany; host or cells: equine serum
T2 sequence (P81908 whole entry): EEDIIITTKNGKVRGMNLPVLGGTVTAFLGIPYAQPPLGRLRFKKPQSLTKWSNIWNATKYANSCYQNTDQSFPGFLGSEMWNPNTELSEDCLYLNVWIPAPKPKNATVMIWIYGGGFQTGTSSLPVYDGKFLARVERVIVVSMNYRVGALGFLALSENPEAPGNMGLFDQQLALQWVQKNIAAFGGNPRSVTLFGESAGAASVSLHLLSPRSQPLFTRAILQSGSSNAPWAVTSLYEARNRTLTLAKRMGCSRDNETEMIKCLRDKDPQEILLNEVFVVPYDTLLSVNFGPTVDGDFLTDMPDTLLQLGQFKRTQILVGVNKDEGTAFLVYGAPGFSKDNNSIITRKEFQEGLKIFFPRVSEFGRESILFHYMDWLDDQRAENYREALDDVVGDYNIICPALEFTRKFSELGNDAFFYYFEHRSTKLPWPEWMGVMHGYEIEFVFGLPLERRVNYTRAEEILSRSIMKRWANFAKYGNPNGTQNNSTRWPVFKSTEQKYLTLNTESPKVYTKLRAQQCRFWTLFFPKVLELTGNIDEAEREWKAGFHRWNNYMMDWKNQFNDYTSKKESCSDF
Method: as §1, §2

[5] = Ferric reducing antioxidant power (FRAP); settings: 150 μL of 5 mM compound, 30 min, 593 nm, Trolox equivalent
[6] = ABTS radical scavenging assay; settings: 734 nm after 5 min
Method: These compounds were also tested for their antioxidant activities by using the ABTS [2,2′-azinobis (3-ethylbenzothiazoline-6-sulfonic acid)] cation radical decolorization method (Table 4). The BHT [41] was used for comparison. The ABTS cation radical is produced by oxidation of the ABTS molecule with strong oxidizing agents, such as potassium persulfate in water.
For ABTS assay, the procedure followed the method of Arnao et al. [71] with some modifications. […] The working solution was then prepared by mixing the two stock solutions in equal quantities and allowing them to react for 14 h at room temperature in the dark. […] A fresh ABTS solution was prepared for each assay. […] The ABTS scavenging capacity of the compound was calculated as follows:ABTS radical scavenging activity (%) = ((Abscontr. − Abssample)/Abscontr.) ×100, where Abscontr. is the absorbance of DPPH radical with 300 μL MeOH, Abssample is the absorbance of DPPH radical solution mixed with the sample. […] BHT was used as positive control.

| Compound | IC50 (SH-SY5Y cells) | IC50 (Neuro-2a cells) | inhibition at 1000 µM [1] | IC50 [1] | PAMPA BBB −logPe (PAMPA-BBB permeability) | Absorbance Day 1 [2] | Absorbance Day 2 [2] | Absorbance Day 3 [2] | Absorbance Day 4 [2] | Absorbance Day 5 [2] | IC50 (CCL-1 cells) | DPPH Activity [3] | inhibition at 1000 µM [4] | SI BChE [4] | IC50 [4] | FRAP [5] | SI AChE ([1]; IC50(BChE)/IC50(AChE)) | ABTS Activity [6] | IC50 [6] |
| --- | --- | --- | --- | --- | --- | --- | --- | --- | --- | --- | --- | --- | --- | --- | --- | --- | --- | --- | --- |
| O=C(Cc1c[nH]c2ccccc12)N/N=C/C1CCN(Cc2ccccc2)CC1 [3a, N’-[(E)-(1-benzylpiperidin-4-yl)methylidene]-2-(1H-indol-3-yl)acetohydrazide] | 129 ± 7.5 µM | > 300 µM | 78.9% | 76.5 ± 3.04 µM | 4.420 | 0.87 ± 0.03 | 0.87 ± 0.08 | 0.72 ± 0.07 | 0.72 ± 0.05 | 0.71 ± 0.08 | 138 ± 9.8 µM | 5.74 ± 0.39% | 80.4% | 1.35 | 56.5 ± 0.2 µM | 15.42 ± 0.74 μMTE | – | – | – |
| COc1ccc(C(=O)N/N=C/C2CCN(Cc3ccccc3)CC2)cc1 [3d, N’-[(E)-(1-benzylpiperidin-4-yl)methylidene]-4-methoxybenzohydrazide] | 122 ± 9.2 µM | > 300 µM | 81.2% | 9.77 ± 0.76 µM | – | 0.85 ± 0.02 | 0.86 ± 0.02 | 0.88 ± 0.05 | 0.85 ± 0.07 | 0.84 ± 0.09 | 220 µM | 40.80 ± 3.10% | 72.9% | – | 197 ± 18.7 µM | 15.87 ± 1.41 μMTE | 20.19 | ≥100% | 1050 ± 40 µM |
| COc1cc(/C=N/NC(=O)Cc2c[nH]c3ccccc23)ccc1O [3q, N’-[(E)-(4-hydroxy-3-methoxyphenyl)methylidene]-2-(1H-indol-3-yl)acetohydrazide] | 141 ± 8.8 µM | 254 ± 13.7 µM | 12.8% | > 1000 µM | – | 0.76 ± 0.03 | 0.77 ± 0.08 | 0.79 ± 0.03 | 0.84 ± 0.05 | 0.91 ± 0.09 | 170 ± 14 µM | 20.40 ± 0.83% | 13.9% | – | > 1000 µM | 15.60 ± 0.90 μMTE | – | ≥100% | 2380 ± 70 µM |
| Cc1ccc(S(=O)(=O)N/N=C/c2cn(Cc3ccccc3)c3ccccc23)cc1 [5g, N’-[(E)-(1-benzyl-1H-indol-3-yl)methylidene]-4-methylbenzenesulfonohydrazide] | 92.1 ± 9.3 µM | 135 ± 10.9 µM | 2.18% | > 1000 µM | – | 0.82 ± 0.04 | 0.87 ± 0.09 | 0.88 ± 0.09 | 0.87 ± 0.05 | 0.88 ± 0.03 | 50.7 ± 3.6 µM | 45.72 ± 1.38% | 40.6% | – | > 1000 µM | 15.87 ± 1.13 μMTE | – | ≥100% | 2080 ± 100 µM |
| COc1ccc(/C=N/NS(=O)(=O)c2ccc(C)cc2)cc1OC [5h, N’-[(E)-(3,4-dimethoxyphenyl)methylidene]-4-methylbenzenesulfonohydrazide] | 42 ± 5.2 µM | 136 ± 12.6 µM | 10.5% | > 1000 µM | – | 0.70 ± 0.09 | 0.82 ± 0.06 | 0.83 ± 0.05 | 0.83 ± 0.06 | 0.80 ± 0.05 | 160 µM | 16.94 ± 1.09% | 26.6 ± 5.11% | – | > 1000 µM | 20.37 ± 0.90 μMTE | – | ≥100% | 1850 ± 30 µM |
| COc1ccc(/C=N/NS(=O)(=O)c2ccccc2)cc1OC [5i, N’-[(E)-(3,4-dimethoxyphenyl)methylidene]benzenesulfonohydrazide] | 40.3 ± 6.1 µM | 109 ± 5.1 µM | 2.63% | > 1000 µM | – | 0.81 ± 0.08 | 0.83 ± 0.01 | 0.83 ± 0.09 | 0.81 ± 0.02 | 0.83 ± 0.03 | 147 µM | 16.21 ± 3.01% | 7.67 ± 0.99% | – | > 1000 µM | 14.67 ± 0.81 μMTE | – | 65.29 ± 2.34% | 3740 ± 50 µM |
| Cc1ccc(S(=O)(=O)N/N=C/c2c[nH]c3ccc(OCc4ccccc4)cc23)cc1 [5j, N’-{(E)-[5-(benzyloxy)-1H-indol-3-yl]methylidene}-4-methylbenzenesulfonohydrazide] | 33.1 ± 0.1 µM | 65.4 ± 0.1 µM | 13.2% | > 1000 µM | – | 0.83 ± 0.01 | 0.83 ± 0.08 | 0.84 ± 0.02 | 0.83 ± 0.05 | 0.82 ± 0.02 | 41.2 ± 4.2 µM | – | 56.9% | 1.15 | 865 ± 159 µM | 18.59 ± 2.28 μMTE | – | ≥100% | 2180 ± 160 µM |
| O=S(=O)(N/N=C/c1c[nH]c2ccc(OCc3ccccc3)cc12)c1ccccc1 [5k] | 135 ± 14 µM | 77.7 ± 6.9 µM | 35.4% | > 1000 µM | – | 0.80 ± 0.04 | 0.80 ± 0.09 | 0.83 ± 0.05 | 0.84 ± 0.08 | 0.87 ± 0.09 | 321 ± 16.2 µM | 47.18 ± 1.14% | 4.97% | – | > 1000 µM | 22.52 ± 1.29 μMTE | – | ≥100% | 2570 ± 130 µM |
| Cc1cc(C(C)(C)C)c(O)c(C(C)(C)C)c1 [BHT, butylated hydroxytoluene, reference compound] | – | – | – | – | – | 0.74 ± 0.07 | 0.77 ± 0.03 | 0.78 ± 0.06 | 0.80 ± 0.06 | 0.81 ± 0.09 | – | 7.78 ± 0.77% | – | – | – | 15.79 ± 0.58 μMTE | – | 29.53 ± 1.65% | > 5000 µM |
